Data as given in ChEMBL document CHEMBL1250443, “Microarray-based method for monitoring yeast overexpression strains reveals small-molecule targets in TOR pathway” (Nat Chem Biol, 2006).

What was measured:
[1] = Inhibition of TOR signaling in wild-type Saccharomyces cerevisiae transformed with overexpression plasmids assessed as increased NOP7 gene expression by microarray
[2] = Inhibition of TOR signaling in wild-type Saccharomyces cerevisiae transformed with overexpression plasmids assessed as decreased FUS3 gene expression by microarray
[3] = Inhibition of TOR signaling in wild-type Saccharomyces cerevisiae transformed with overexpression plasmids assessed as increased NEM1 gene expression by microarray
[4] = Inhibition of TOR signaling in wild-type Saccharomyces cerevisiae transformed with overexpression plasmids assessed as decreased ELP2 gene expression by microarray
[5] = system: Saccharomyces cerevisiae; test: Decrease of YJL051W gene expression in wild-type Saccharomyces cerevisiae transformed with overexpression plasmids by microarray; assay type: functional
[6] = Inhibition of TOR signaling in wild-type Saccharomyces cerevisiae transformed with overexpression plasmids assessed as increased HCA4 gene expression by microarray
[7] = Inhibition of TOR signaling in wild-type Saccharomyces cerevisiae transformed with overexpression plasmids assessed as increased UTP8 gene expression by microarray
[8] = Inhibition of TOR signaling in wild-type Saccharomyces cerevisiae transformed with overexpression plasmids assessed as increased WRS1 gene expression by microarray
[9] = system: Saccharomyces cerevisiae; test: Decrease of YKR75C gene expression in wild-type Saccharomyces cerevisiae transformed with overexpression plasmids by microarray; assay type: functional
[10] = Inhibition of TOR signaling in wild-type Saccharomyces cerevisiae transformed with overexpression plasmids assessed as increased STM1 gene expression by microarray
[11] = Inhibition of TOR signaling in wild-type Saccharomyces cerevisiae transformed with overexpression plasmids assessed as decreased YBR284W gene expression by microarray
[12] = Inhibition of TOR signaling in wild-type Saccharomyces cerevisiae transformed with overexpression plasmids assessed as decreased VTI1 gene expression by microarray
[13] = Inhibition of TOR signaling in wild-type Saccharomyces cerevisiae transformed with overexpression plasmids assessed as decreased AZR1 gene expression by microarray
[14] = Inhibition of TOR signaling in wild-type Saccharomyces cerevisiae transformed with overexpression plasmids assessed as increased URA5 gene expression by microarray
[15] = Inhibition of TOR signaling in wild-type Saccharomyces cerevisiae transformed with overexpression plasmids assessed as increased CDC54 gene expression by microarray
[16] = system: Saccharomyces cerevisiae; test: Increase of HMI1 gene expression in wild-type Saccharomyces cerevisiae transformed with overexpression plasmids by microarray; assay type: functional
[17] = Inhibition of TOR signaling in wild-type Saccharomyces cerevisiae transformed with overexpression plasmids assessed as decreased GIP3 gene expression by microarray
[18] = Inhibition of TOR signaling in wild-type Saccharomyces cerevisiae transformed with overexpression plasmids assessed as decreased YKL059C gene expression by microarray
[19] = Inhibition of TOR signaling in wild-type Saccharomyces cerevisiae transformed with overexpression plasmids assessed as increased YOR220W gene expression by microarray
[20] = Inhibition of TOR signaling in wild-type Saccharomyces cerevisiae transformed with overexpression plasmids assessed as increased CIT1 gene expression by microarray
[21] = Inhibition of TOR signaling in wild-type Saccharomyces cerevisiae transformed with overexpression plasmids assessed as increased HSP104 gene expression by microarray
[22] = Inhibition of TOR signaling in wild-type Saccharomyces cerevisiae transformed with overexpression plasmids assessed as decreased GIS4 gene expression by microarray
[23] = Inhibition of TOR signaling in wild-type Saccharomyces cerevisiae transformed with overexpression plasmids assessed as increased CDC33 gene expression by microarray
[24] = Inhibition of TOR signaling in wild-type Saccharomyces cerevisiae transformed with overexpression plasmids assessed as increased YEL070W gene expression by microarray
[25] = Inhibition of TOR signaling in wild-type Saccharomyces cerevisiae transformed with overexpression plasmids assessed as decreased YFL054C gene expression by microarray
[26] = Inhibition of TOR signaling in wild-type Saccharomyces cerevisiae transformed with overexpression plasmids assessed as decreased HSD1 gene expression by microarray
[27] = Inhibition of TOR signaling in wild-type Saccharomyces cerevisiae transformed with overexpression plasmids assessed as increased PZF1 gene expression by microarray
[28] = Inhibition of TOR signaling in wild-type Saccharomyces cerevisiae transformed with overexpression plasmids assessed as decreased HES1 gene expression by microarray
[29] = Inhibition of TOR signaling in wild-type Saccharomyces cerevisiae transformed with overexpression plasmids assessed as increased FBP1 gene expression by microarray
[30] = Inhibition of TOR signaling in wild-type Saccharomyces cerevisiae transformed with overexpression plasmids assessed as increased SAS10 gene expression by microarray
[31] = Inhibition of TOR signaling in wild-type Saccharomyces cerevisiae transformed with overexpression plasmids assessed as increased PDR17 gene expression by microarray
[32] = Inhibition of TOR signaling in wild-type Saccharomyces cerevisiae transformed with overexpression plasmids assessed as decreased YPL260W gene expression by microarray
[33] = Inhibition of TOR signaling in wild-type Saccharomyces cerevisiae transformed with overexpression plasmids assessed as increased SRP72 gene expression by microarray
[34] = system: Saccharomyces cerevisiae; test: Decrease of FET4 gene expression in wild-type Saccharomyces cerevisiae transformed with overexpression plasmids by microarray; assay type: functional
[35] = system: Saccharomyces cerevisiae; test: Decrease of YDR222W gene expression in wild-type Saccharomyces cerevisiae transformed with overexpression plasmids by microarray; assay type: functional
[36] = Inhibition of TOR signaling in wild-type Saccharomyces cerevisiae transformed with overexpression plasmids assessed as increased NAM7 gene expression by microarray
[37] = Inhibition of TOR signaling in wild-type Saccharomyces cerevisiae transformed with overexpression plasmids assessed as decreased BUD8 gene expression by microarray
[38] = Inhibition of TOR signaling in wild-type Saccharomyces cerevisiae transformed with overexpression plasmids assessed as increased CDC5 gene expression by microarray
[39] = Inhibition of TOR signaling in wild-type Saccharomyces cerevisiae transformed with overexpression plasmids assessed as increased YPR153W gene expression by microarray
[40] = Inhibition of TOR signaling in wild-type Saccharomyces cerevisiae transformed with overexpression plasmids assessed as increased PDR3 gene expression by microarray
[41] = Inhibition of TOR signaling in wild-type Saccharomyces cerevisiae transformed with overexpression plasmids assessed as decreased FRE5 gene expression by microarray
[42] = Inhibition of TOR signaling in wild-type Saccharomyces cerevisiae transformed with overexpression plasmids assessed as decreased YPL264C gene expression by microarray
[43] = Inhibition of TOR signaling in wild-type Saccharomyces cerevisiae transformed with overexpression plasmids assessed as decreased YNL058C gene expression by microarray
[44] = Inhibition of TOR signaling in wild-type Saccharomyces cerevisiae transformed with overexpression plasmids assessed as decreased YNL305C gene expression by microarray
[45] = Inhibition of TOR signaling in wild-type Saccharomyces cerevisiae transformed with overexpression plasmids assessed as increased YDL025C gene expression by microarray

`CO[C@H]1C[C@@H]2CC[C@@H](C)[C@@](O)(O2)C(=O)C(=O)N2CCCC[C@H]2C(=O)O[C@H]([C@H](C)C[C@@H]2CC[C@@H](O)[C@H](OC)C2)CC(=O)[C@H](C)/C=C(\C)[C@@H](O)[C@@H](OC)C(=O)[C@H](C)C[C@H](C)/C=C/C=C/C=C/1C` [SIROLIMUS] showed a fold change (FC) [1] of 2.4, a fold change (FC) [2] of -3.2 and a fold change (FC) [3] of 2.2. For the same compound, the fold change (FC) [4] was -8.1, the “fold change (FC)” value [5] was -2.5 and the fold change (FC) [6] was 2.9. For the same compound, the fold change (FC) [7] was 2.6, the fold change (FC) [8] was 2.8 and the “fold change (FC)” value [9] was -2.5. The fold change (FC) [10] was 5.7, the fold change (FC) [11] was -3.2 and the fold change (FC) [12] was -2.8. It also gave a fold change (FC) [13] of -3.1, a fold change (FC) [14] of 2.2 and a fold change (FC) [15] of 4.5. The “fold change (FC)” value [16] was -2.3, the fold change (FC) [17] was -2.3 and the fold change (FC) [18] was -2.3. For the same compound, the fold change (FC) [19] was 3.2, the fold change (FC) [20] was 2.1 and the fold change (FC) [21] was 6.3. The fold change (FC) [22] was -7.2, the fold change (FC) [23] was 2 and the fold change (FC) [24] was 3. It also gave a fold change (FC) [25] of -2.5, a fold change (FC) [26] of -4.5 and a fold change (FC) [27] of 2.1. For the same compound, the fold change (FC) [28] was -3.1, the fold change (FC) [29] was 2.1 and the fold change (FC) [30] was 2.3. The fold change (FC) [31] was 2.9, the fold change (FC) [32] was -2 and the fold change (FC) [33] was 3.4. For the same compound, the “fold change (FC)” value [34] was -5.1, the “fold change (FC)” value [35] was 5 and the fold change (FC) [36] was 6.4. It also gave a fold change (FC) [37] of -6.4, a fold change (FC) [38] of 3.4 and a fold change (FC) [39] of 2.1. It also gave a fold change (FC) [40] of 14.4, a fold change (FC) [41] of -8.1 and a fold change (FC) [42] of -3.2. It also gave a fold change (FC) [43] of -2.1, a fold change (FC) [44] of -2.5 and a fold change (FC) [45] of 2.5.
